From ChEMBL document CHEMBL4819037, “Phytochemical Profiling and Biological Activity of the Australian Carnivorous Plant, Drosera magna” (J Nat Prod, 2021)
The source made the active and inactive calls. The rule behind the calls is not given here.

Key:
Candida albicans [1] = experiment: Antimicrobial activity against Candida albicans ATCC 90028 assessed as inhibition of fungal growth at 32 ug/ml incubated for 24 hrs by resazurin dye based assay; assay type: functional, organism-based; conditions: dose 32.0 µg/ml
Haemonchus contortus [2] = experiment: Anti-helmintic activity against third-stage xL3 Haemonchus contortus larvae assessed as inhibition of larvae motility at 100 uM measured after 72 hrs; assay type: functional, organism-based
HEK293 = experiment: Cytotoxicity against human HEK293 cells at 32 ug/ml; assay type: cell-based
Cryptococcus neoformans [3] = experiment: Antimicrobial activity against Cryptococcus neoformans var. grubii ATCC 208821 assessed as inhibition of fungal growth at 8 ug/ml incubated for 24 hrs by resazurin dye based assay; assay type: functional; parameters: scale not given: the % may be the effect or the level left; conditions: dose 8 µg/ml
Staphylococcus aureus [4] = experiment: Antimicrobial activity against methicillin-resistant Staphylococcus aureus ATCC 43300 assessed as inhibition of bacterial growth at < 0.2 ug/ml incubated for 18 hrs by resazurin dye based assay; assay type: functional; parameters: scale not given: the % may be the effect or the level left; conditions: dose microg/ml <0.2
Escherichia coli = experiment: Antimicrobial activity against Escherichia coli ATCC 25922 assessed as inhibition of bacterial growth at 32 ug/ml incubated for 18 hrs by resazurin dye based assay; assay type: functional, organism-based; conditions: dose 32.0 µg/ml
Cryptococcus neoformans [5] = experiment: Antimicrobial activity against Cryptococcus neoformans var. grubii ATCC 208821 assessed as inhibition of fungal growth at 32 ug/ml incubated for 24 hrs by resazurin dye based assay; assay type: functional; conditions: dose 32.0 µg/ml
Staphylococcus aureus [6] = experiment: Antimicrobial activity against methicillin-resistant Staphylococcus aureus ATCC 43300 assessed as inhibition of bacterial growth at 32 ug/ml incubated for 18 hrs by resazurin dye based assay; assay type: functional, organism-based; conditions: dose 32.0 µg/ml
Acinetobacter baumannii = experiment: Antimicrobial activity against Acinetobacter baumannii ATCC 19606 assessed as inhibition of bacterial growth at 32 ug/ml incubated for 18 hrs by resazurin dye based assay; assay type: functional, organism-based; conditions: ATCC 19606 = CIP 70.34 = JCM 6841, dose 32.0 µg/ml
Pseudomonas aeruginosa = experiment: Antimicrobial activity against Pseudomonas aeruginosa ATCC 27853 assessed as inhibition of bacterial growth at 32 ug/ml incubated for 18 hrs by resazurin dye based assay; assay type: functional, organism-based; conditions: dose 32.0 µg/ml
Klebsiella pneumoniae = experiment: Antimicrobial activity against Klebsiella pneumoniae ATCC 700603 assessed as inhibition of bacterial growth at 32 ug/ml incubated for 18 hrs by resazurin dye based assay; assay type: functional, organism-based; conditions: dose 32.0 µg/ml
[7] = Hemolytic activity against RBC (unknown origin) at 32 ug/ml; assay type: ADME, cell-based, Erythrocyte; conditions: red blood cells (erythrocytes), at 32 µg/mL, read-out: Activity
Haemonchus contortus [8] = experiment: Anti-helmintic activity against fourth stage L4 Haemonchus contortus larvae assessed as induction of abnormal morphological phenotype at >= 50 uM after 7 days; assay type: functional, organism-based; conditions: dose microM >=50, time 7.0 day
Candida albicans [9] = experiment: Antimicrobial activity against Candida albicans ATCC 90028 assessed as inhibition of fungal growth at 8 ug/ml incubated for 24 hrs by resazurin dye based assay; assay type: functional; parameters: scale not given: the % may be the effect or the level left; conditions: dose 8 µg/ml
Cryptococcus neoformans [10] = experiment: Antimicrobial activity against Cryptococcus neoformans var. grubii ATCC 208821 assessed as inhibition of fungal growth at 4 ug/ml incubated for 24 hrs by resazurin dye based assay; assay type: functional; parameters: scale not given: the % may be the effect or the level left; conditions: dose 4 µg/ml
Haemonchus contortus [11] = experiment: Anti-helmintic activity against fourth stage L4 Haemonchus contortus larvae assessed as inhibition of larvae motility at 100 uM after 72 hrs; assay type: functional; parameters: scale not given: the % may be the effect or the level left

Q: Which Activity (Candida albicans [1]) does the source give for `CC1=C(O)C(=O)c2c(OC3OC(CO)C(O)C(O)C3O)ccc(O)c2C1=O` (configuration not stated) here?
A: Active

Q: With `COc1ccc(-c2oc3cc(OC4OC(C)C(O)C(OC(C)=O)C4O)cc(O)c3c(=O)c2OC2OC(C)C(O)C(O)C2O)cc1O` (configuration not stated) as the compound, how does the Activity (Haemonchus contortus [2]) read?
A: inactive

Q: What does the source list for `CC1=CC(=O)c2c(O)cccc2C1=O` [PLUMBAGIN]?
A: Activity (HEK293; at 32 µg/mL): 92%; Activity (Cryptococcus neoformans [3]): 100%; Activity (Staphylococcus aureus [4]): 96%

Q: For `O=C1CC(c2ccc(O)cc2)Oc2cc(O)c([C@@H]3O[C@H](CO)[C@@H](O)[C@H](O)[C@H]3O)c(O)c21` (some centres not stated), which Activity (Escherichia coli) is on record?
A: Active

Q: And the Activity (Cryptococcus neoformans [5])?
A: Active

Q: What about the Activity (Candida albicans [1]) of the same compound?
A: Active

Q: What about the Activity (Staphylococcus aureus [6]) of the same compound?
A: Active

Q: And the Activity (Acinetobacter baumannii)?
A: Active

Q: What about the Activity (Pseudomonas aeruginosa) of the same compound?
A: Active

Q: And the Activity (Klebsiella pneumoniae)?
A: Active

Q: With `O=c1c(O[C@@H]2O[C@H](CO)[C@@H](O)[C@H](O)[C@H]2O)c(-c2ccc(O)c(O)c2)oc2cc(O)cc(O)c12` [ISOQUERCETIN] as the compound, how does the Activity (Escherichia coli) read?
A: Active

Q: What about the Activity (Cryptococcus neoformans [5]) of the same compound?
A: Active

Q: And the Activity (Candida albicans [1])?
A: inactive

Q: What about the Activity (Staphylococcus aureus [6]) of the same compound?
A: Active

Q: And the Activity (Acinetobacter baumannii)?
A: Active

Q: And the Activity (Pseudomonas aeruginosa)?
A: Active

Q: What about the Activity (Klebsiella pneumoniae) of the same compound?
A: Active

Q: And the hemolysis at 32 ug/ml [7]?
A: > 10%

Q: With `CC1=C(O)C(=O)c2c(O)ccc(O)c2C1=O` as the compound, how does the Activity (Haemonchus contortus [8]) read?
A: Active

Q: What about the Activity (Haemonchus contortus [2]) of the same compound?
A: inactive

Q: What about the Activity (HEK293; dose 32 µg/ml) of the same compound?
A: Non-Toxic

Q: What about the Activity (Candida albicans [9]) of the same compound?
A: 98%

Q: What about the Activity (Cryptococcus neoformans [10]) of the same compound?
A: 100%

Q: What about the Activity (Haemonchus contortus [11]) of the same compound?
A: 27%

Q: Which Activity (Haemonchus contortus [2]) does the source give for `COc1ccc(-c2oc3cc(OC4OC(C)C(O)C(O)C4O)cc(O)c3c(=O)c2OC2OC(C)C(O)C(O)C2O)cc1O` (configuration not stated) here?
A: inactive
